Laboratory results reported in patent publication US5358951A, “Angiotensin II receptor blocking 2, 3, 6 substituted quinazolinones” (American Cyanamid Company, priority 1993, dated 1994).

Tested on: vasopressor response of angiotensin II
Assay: AII Challenge: antagonism of angiotensin II vasopressor response;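 as to Response Average Change: post-dose Angiotensin II-evoked rise in systolic blood pressure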
Assay type: in vivo
Conditions: for inhibition in vivo at 1 mg/kg: Rattus norvegicus
In short: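 Conscious male SHR (16-20 weeks) with aortic and caval cannulae received angiotensin II at 0.05 and 0.1 ug/kg i.v. before and 30-300 min after compound dosing (i.v., i.p. or oral). Blockade is expressed as % of each rat's predose rise in systolic pressure.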

## CCCCc1nc2ccc(C3(CO)CC4CCCN4O3)cc2c(=O)n1Cc1ccc(-c2ccccc2-c2nnn[nH]2)cc1 (stereo not drawn) [Example 80, (Trans)-2-butyl-6-[hexahydro-2-(hydroxymethyl)-Pyrrolo[1,2-b]isoxazol-2-yl]-3-[[2'-[1H-tetrazol-5-yl)[1,1'-biphenyl]-4-yl]methyl-4(3H)quinazolinone]
1 mg/kg P.O., AII 0.05 mcg/kg IV, 30 min post dose
  Response Average Change: 30 mmHg
1 mg/kg P.O., AII 0.05 mcg/kg IV, 60 min post dose
  Response Average Change: 15 mmHg
1 mg/kg P.O., AII 0.05 mcg/kg IV, 90 min post dose
  Response Average Change: 22.5 mmHg
1 mg/kg P.O., AII 0.05 mcg/kg IV, 120 min post dose
  Response Average Change: 10 mmHg
1 mg/kg P.O., AII 0.05 mcg/kg IV, 180 min post dose
  Response Average Change: 19 mmHg
1 mg/kg P.O., AII 0.05 mcg/kg IV, 240 min post dose
  Response Average Change: 17.5 mmHg
1 mg/kg P.O., AII 0.05 mcg/kg IV, 300 min post dose
  Response Average Change: 30 mmHg
1 mg/kg P.O., AII 0.1 mcg/kg IV, 30 min post dose
  Response Average Change: 37.5 mmHg
1 mg/kg P.O., AII 0.1 mcg/kg IV, 60 min post dose
  Response Average Change: 32.5 mmHg
1 mg/kg P.O., AII 0.1 mcg/kg IV, 90 min post dose
  Response Average Change: 27.5 mmHg
1 mg/kg P.O., AII 0.1 mcg/kg IV, 120 min post dose
  Response Average Change: 22.5 mmHg
1 mg/kg P.O., AII 0.1 mcg/kg IV, 180 min post dose
  Response Average Change: 25 mmHg
1 mg/kg P.O., AII 0.1 mcg/kg IV, 240 min post dose
  Response Average Change: 25 mmHg
1 mg/kg P.O., AII 0.1 mcg/kg IV, 300 min post dose
  Response Average Change: 27.5 mmHg
1 mg/kg i.v., AII 0.05 mcg/kg IV, 30 min post dose
  Response Average Change: 5 mmHg
1 mg/kg i.v., AII 0.05 mcg/kg IV, 60 min post dose
  Response Average Change: 5 mmHg
1 mg/kg i.v., AII 0.05 mcg/kg IV, 90 min post dose
  Response Average Change: 9 mmHg
1 mg/kg i.v., AII 0.05 mcg/kg IV, 120 min post dose
  Response Average Change: 12.5 mmHg
1 mg/kg i.v., AII 0.05 mcg/kg IV, 180 min post dose
  Response Average Change: 12.5 mmHg
1 mg/kg i.v., AII 0.05 mcg/kg IV, 240 min post dose
  Response Average Change: 20 mmHg
1 mg/kg i.v., AII 0.05 mcg/kg IV, 300 min post dose
  Response Average Change: 16.5 mmHg
1 mg/kg i.v., AII 0.1 mcg/kg IV, 30 min post dose
  Response Average Change: 8.5 mmHg
1 mg/kg i.v., AII 0.1 mcg/kg IV, 60 min post dose
  Response Average Change: 10 mmHg
1 mg/kg i.v., AII 0.1 mcg/kg IV, 90 min post dose
  Response Average Change: 22.5 mmHg
1 mg/kg i.v., AII 0.1 mcg/kg IV, 120 min post dose
  Response Average Change: 17.5 mmHg
1 mg/kg i.v., AII 0.1 mcg/kg IV, 180 min post dose
  Response Average Change: 17.5 mmHg
1 mg/kg i.v., AII 0.1 mcg/kg IV, 240 min post dose
  Response Average Change: 22.5 mmHg
1 mg/kg i.v., AII 0.1 mcg/kg IV, 300 min post dose
  Response Average Change: 30 mmHg
iv, 0.5 h, 1 mg/kg i.v., AII 0.05 mcg/kg IV, 30 min post dose
  inhibition in vivo at 1 mg/kg: 90%
iv, 0.5 h, 1 mg/kg i.v., AII 0.1 mcg/kg IV, 30 min post dose
  inhibition in vivo at 1 mg/kg: 83%
iv, 1 h, 1 mg/kg i.v., AII 0.05 mcg/kg IV, 60 min post dose
  inhibition in vivo at 1 mg/kg: 90%
iv, 1 h, 1 mg/kg i.v., AII 0.1 mcg/kg IV, 60 min post dose
  inhibition in vivo at 1 mg/kg: 80%
iv, 2 h, 1 mg/kg i.v., AII 0.05 mcg/kg IV, 120 min post dose
  inhibition in vivo at 1 mg/kg: 76%
iv, 2 h, 1 mg/kg i.v., AII 0.1 mcg/kg IV, 120 min post dose
  inhibition in vivo at 1 mg/kg: 65%
iv, 3 h, 1 mg/kg i.v., AII 0.05 mcg/kg IV, 180 min post dose
  inhibition in vivo at 1 mg/kg: 76%
iv, 3 h, 1 mg/kg i.v., AII 0.1 mcg/kg IV, 180 min post dose
  inhibition in vivo at 1 mg/kg: 65%
iv, 4 h, 1 mg/kg i.v., AII 0.05 mcg/kg IV, 240 min post dose
  inhibition in vivo at 1 mg/kg: 62%
iv, 4 h, 1 mg/kg i.v., AII 0.1 mcg/kg IV, 240 min post dose
  inhibition in vivo at 1 mg/kg: 55%
iv, 5 h, 1 mg/kg i.v., AII 0.05 mcg/kg IV, 300 min post dose
  inhibition in vivo at 1 mg/kg: 69%
iv, 5 h, 1 mg/kg i.v., AII 0.1 mcg/kg IV, 300 min post dose
  inhibition in vivo at 1 mg/kg: 40%
iv, […], 1 mg/kg i.v., AII 0.05 mcg/kg IV, 90 min post dose
  inhibition in vivo at 1 mg/kg: 83%
iv, […], 1 mg/kg i.v., AII 0.1 mcg/kg IV, 90 min post dose
  inhibition in vivo at 1 mg/kg: 55%
po, 0.5 h, 1 mg/kg P.O., AII 0.05 mcg/kg IV, 30 min post dose
  inhibition in vivo at 1 mg/kg: 25%
po, 0.5 h, 1 mg/kg P.O., AII 0.1 mcg/kg IV, 30 min post dose
  inhibition in vivo at 1 mg/kg: 6%
po, 1 h, 1 mg/kg P.O., AII 0.05 mcg/kg IV, 60 min post dose
  inhibition in vivo at 1 mg/kg: 63%
po, 1 h, 1 mg/kg P.O., AII 0.1 mcg/kg IV, 60 min post dose
  inhibition in vivo at 1 mg/kg: 19%
po, 2 h, 1 mg/kg P.O., AII 0.05 mcg/kg IV, 120 min post dose
  inhibition in vivo at 1 mg/kg: 75%
po, 2 h, 1 mg/kg P.O., AII 0.1 mcg/kg IV, 120 min post dose
  inhibition in vivo at 1 mg/kg: 44%
po, 3 h, 1 mg/kg P.O., AII 0.05 mcg/kg IV, 180 min post dose
  inhibition in vivo at 1 mg/kg: 53%
po, 3 h, 1 mg/kg P.O., AII 0.1 mcg/kg IV, 180 min post dose
  inhibition in vivo at 1 mg/kg: 38%
po, 4 h, 1 mg/kg P.O., AII 0.05 mcg/kg IV, 240 min post dose
  inhibition in vivo at 1 mg/kg: 56%
po, 4 h, 1 mg/kg P.O., AII 0.1 mcg/kg IV, 240 min post dose
  inhibition in vivo at 1 mg/kg: 38%
po, 5 h, 1 mg/kg P.O., AII 0.05 mcg/kg IV, 300 min post dose
  inhibition in vivo at 1 mg/kg: 25%
po, 5 h, 1 mg/kg P.O., AII 0.1 mcg/kg IV, 300 min post dose
  inhibition in vivo at 1 mg/kg: 31%
po, […], 1 mg/kg P.O., AII 0.05 mcg/kg IV, 90 min post dose
  inhibition in vivo at 1 mg/kg: 44%
po, […], 1 mg/kg P.O., AII 0.1 mcg/kg IV, 90 min post dose
  inhibition in vivo at 1 mg/kg: 31%
